In ChEMBL document CHEMBL6096696, “Structure-Activity Relationship Studies of an Autophagy Inhibitor That Targets the ATG14L-Beclin1 Protein-Protein Interaction Reveal Modifications That Improve Potency and Solubility and Maintain Selectivity” (J Med Chem, 2025):
In brackets after ≈: the same amount, converted by molar mass.

Key:
[1] = Kinetic aqueous solubility of compound in PBS at pH 7.4 by absorbance based analysis; format: physicochemical; conditions: read-out: Kinetic_solubility
HEK293T [2] = test: Inhibition of C-terminal Nano-luc tagged ATG14L/C-terminal Halo-tagged Beclin 1 (unknown origin) PPI tranfected with HEK293T cells using […] at 100 uM incubated for 24 hrs by […] assay relative to control; format: cell-based; conditions: Homo sapiens, values are per cent of control
HEK293T [3] = test: Inhibition of C-terminal Nano-luc tagged UVRAG/C-terminal Halo-tagged Beclin 1 (unknown origin) PPI tranfected with HEK293T cells using […] at 100 uM incubated for 24 hrs by […] assay relative to control; format: cell-based; conditions: Homo sapiens, values are per cent of control
[4] = Selectivity ratio of inhibition of C-terminal Nano-luc tagged UVRAG/C-terminal Halo-tagged Beclin 1 (unknown origin) PPI tranfected with HEK293T cells to inhibition of C-terminal Nano-luc tagged ATG14L/C-terminal Halo-tagged Beclin 1 (unknown origin) PPI tranfected with HEK293T cells

Row | Compound | solubility kinetic [1] [µM] | Selectivity ratio [4] | residual binding, % of control (HEK293T [2]) [%] | residual binding, % of control (HEK293T [3]) [%]
1 | CCCN1C(=O)COc2ccc(S(=O)(=O)Nc3ccccc3F)cc21 | > 100 | – | 147 | –
2 | Cc1cccc(NS(=O)(=O)c2ccc3c(c2)N(CC(C)O)C(=O)CO3)c1C (stereo not given) | > 100 | – | 107 | –
3 | CCCN1C(=O)COc2ccc(NS(=O)(=O)c3cccc(C(F)(F)F)c3)cc21 | > 100 | – | 80 | –
4 | CCCN1C(=O)COc2ccc(NS(=O)(=O)c3cccc(Br)c3)cc21 | > 100 | – | 101 | –
5 | CCCN1C(=O)COc2ccc(S(=O)(=O)Nc3ccccc3)cc21 | > 100 | – | 134 | –
6 | CCCCN1C(=O)COc2ccc(S(=O)(=O)Nc3cccc(C)c3C)cc21 | > 100 | – | 110 | –
7 | CCCN1C(=O)COc2ccc(S(=O)(=O)NCc3ccccc3)cc21 | > 100 | – | 116 | –
8 | O=C1COc2ccc(-c3cccc(OC(F)(F)F)c3)cc2N1Cc1noc(C2CCC2)n1 | > 100 | 1.05 | 105 | 110
9 | CCCN1C(=O)COc2ccc(S(=O)(=O)Nc3cc(OC)ccc3OC)cc21 | > 100 | – | 107 | –
10 | Cc1cccc(NS(=O)(=O)c2ccc3c(c2)OCC(=O)N3Cc2ccco2)c1C | > 100 | – | 109 | –
11 | COc1ccccc1-c1ccc2c(c1)N(Cc1noc(C3CCC3)n1)C(=O)CO2 | > 100 | 1.06 | 98.3 | 104
12 | O=C1COc2ccc(Nc3ccccc3F)cc2N1Cc1noc(C2CCC2)n1 | > 100 | 1.23 | 82 | 101
13 | CC(C)c1cccc(Nc2ccc3c(c2)N(Cc2noc(C4CCC4)n2)C(=O)CO3)c1 | > 100 | 1.18 | 88.7 | 105
14 | O=C1COc2ccc(-c3ccc(F)cc3F)cc2N1Cc1noc(C2CCC2)n1 | > 100 | 1.14 | 87.9 | 100
15 | O=C1COc2ccc(-c3ccccc3)cc2N1Cc1noc(C2CCC2)n1 | > 100 | 1.06 | 98.7 | 105
16 | O=C1COc2ccc(-c3cccc(F)c3F)cc2N1Cc1noc(C2CCC2)n1 | > 100 | 1.11 | 85.1 | 94.8
17 | Cc1cccc(NS(=O)(=O)c2ccc3c(c2)N(CC2CCCCC2)C(=O)CO3)c1C | > 100 | – | 106 | –
18 | CCCN1C(=O)COc2ccc(S(=O)(=O)Nc3cccc(Cl)c3C)cc21 | > 100 | – | 131 | –
19 | CCCN1C(=O)COc2ccc(NC(=O)Cc3ccccc3)cc21 | > 100 | – | 127 | –
20 | CCCN1C(=O)COc2ccc(NC(=O)c3cccc(C)c3C)cc21 | > 100 | – | 92 | –
21 | CCCN1C(=O)COc2ccc(S(=O)(=O)N3CCCCC3)cc21 | > 100 | – | 109 | –
22 | CCCN1C(=O)COc2ccc(NS(=O)(=O)c3c(C(C)C)cc(C(C)C)cc3C(C)C)cc21 | > 100 | – | 59.9 | –
23 | CCCN1C(=O)COc2ccc(S(=O)(=O)Nc3ccccc3Br)cc21 | > 100 | – | 132 | –
24 | CCCN1C(=O)COc2ccc(NS(=O)(=O)c3cccc(C)c3C)cc21 | > 100 | – | 83.2 | –
25 | CCCN1C(=O)COc2ccc(NC(=O)c3ccc(Cl)cc3Cl)cc21 | 50 (≈ 19 µg/mL) | – | 109 | –

Second part, led by results:

Row | solubility kinetic [1] [µM] | Selectivity ratio [4] | Compound | residual binding, % of control (HEK293T [2]) [%] | residual binding, % of control (HEK293T [3]) [%]
26 | 50 (≈ 21.1 µg/mL) | – | Cc1cccc(NS(=O)(=O)c2ccc3c(c2)OCC(=O)N3Cc2ccccc2)c1C | 105 | –
27 | > 100 | – | CCCN1C(=O)COc2ccc(S(=O)(=O)Nc3c(C)cccc3C)cc21 | 105 | –
28 | > 100 | – | Cc1cccc(NS(=O)(=O)c2ccc3c(c2)N(C)C(=O)CO3)c1C | 106 | –
29 | 50 (≈ 16.5 µg/mL) | 1.02 | CCCN1C(=O)COc2ccc(Nc3cccc(Cl)c3C)cc21 | 101 | 104
30 | > 100 | – | CCCN1C(=O)COc2ccc(NS(=O)(=O)c3cccc(C)c3)cc21 | 96.2 | –
31 | 50 (≈ 18.1 µg/mL) | 1.14 | CCCN1C(=O)COc2ccc(Nc3cccc(Br)c3)cc21 | 101 | 116
32 | > 100 | – | CCCN1C(=O)COc2ccc(NS(=O)(=O)c3ccccc3Br)cc21 | 88.1 | –
33 | > 100 | – | CCCN1C(=O)COc2ccc(NC(=O)c3ccccc3)cc21 | 106 | –
34 | > 100 | – | CCCN1C(=O)COc2ccc(NC(=O)c3cccc(Br)c3)cc21 | 112 | –
35 | 25 (≈ 11.1 µg/mL) | 1.25 | O=C1COc2ccc(Nc3cccc(Cl)c3Cl)cc2N1Cc1noc(C2CCC2)n1 | 86.2 | 108
36 | > 100 | 1.49 | CCCN1C(=O)COc2ccc(Nc3ccccc3Br)cc21 | 82.9 | 108
37 | > 100 | – | CCCN1C(=O)COc2ccc(NS(=O)(=O)c3cc(OC)ccc3OC)cc21 | 103 | –
38 | > 100 | – | CCCN1C(=O)COc2ccc(NC(=O)c3ccccc3Br)cc21 | 119 | –
39 | 50 (≈ 22.3 µg/mL) | 1.29 | O=C1COc2ccc(Nc3ccc(Cl)cc3Cl)cc2N1Cc1noc(C2CCC2)n1 | 79.1 | 102
40 | > 100 | 1.21 | CC(C)c1cccc(-c2ccc3c(c2)N(Cc2noc(C4CCC4)n2)C(=O)CO3)c1 | 81.6 | 99.1
41 | > 100 | 1.24 | O=C1COc2ccc(-c3ccccc3F)cc2N1Cc1noc(C2CCC2)n1 | 79 | 98
42 | > 100 | 1.27 | CC(C)c1ccccc1Nc1ccc2c(c1)N(Cc1noc(C3CCC3)n1)C(=O)CO2 | 82.4 | 105
43 | > 100 | – | CCCN1C(=O)COc2ccc(NS(=O)(=O)c3ccc(Cl)cc3Cl)cc21 | 101 | –

Row | solubility kinetic [1] [µM] | Selectivity ratio [4] | Compound | residual binding, % of control (HEK293T [2]) [%] | residual binding, % of control (HEK293T [3]) [%]
44 | 50 (≈ 19 µg/mL) | 1.11 | O=C1COc2ccc(-c3cccc(F)c3)cc2N1Cc1noc(C2CCC2)n1 | 90.3 | 101
45 | > 100 | – | CCCN1C(=O)COc2ccc(S(=O)(=O)Nc3cccc(Cl)c3)cc21 | 145 | –
46 | > 100 | 1.5 | Cc1cccc(Nc2ccc3c(c2)N(Cc2noc(C4CCC4)n2)C(=O)CO3)c1C | 79.3 | 119
47 | > 100 | – | Cc1cccc(NS(=O)(=O)c2ccc3c(c2)OCC(=O)N3Cc2ccccn2)c1C | 112 | –
48 | > 100 | 1.15 | O=C1COc2ccc(-c3ccccc3O)cc2N1Cc1noc(C2CCC2)n1 | 94.9 | 109
49 | > 100 | – | CCCN1C(=O)COc2ccc(NS(=O)(=O)c3ccccc3)cc21 | 89.2 | –
50 | > 100 | 1.11 | O=C1COc2ccc(Nc3ccccc3Cl)cc2N1Cc1noc(C2CCC2)n1 | 93.6 | 104
51 | > 100 | 1.01 | Cc1ccccc1-c1ccc2c(c1)N(Cc1noc(C3CCC3)n1)C(=O)CO2 | 109 | 110
52 | > 100 | 1.54 | CCCN1C(=O)COc2ccc(Nc3ccccc3)cc21 | 75.8 | 116
53 | > 100 | – | CCCN1C(=O)COc2ccc(S(=O)(=O)N3CCOCC3)cc21 | 110 | –
54 | > 100 | – | CCCN1C(=O)COc2ccc(NC(=O)c3cccc([N+](=O)[O-])c3)cc21 | 104 | –
55 | > 100 | 1.13 | Cc1cccc(-c2ccc3c(c2)N(Cc2noc(C4CCC4)n2)C(=O)CO3)c1 | 90.8 | 102
56 | 100 (≈ 42.5 µg/mL) | 1.13 | Cc1cccc(Nc2ccc3c(c2)N(Cc2noc(C4CCC4)n2)C(=O)CO3)c1Cl | 89.8 | 102
57 | > 100 | – | CCCN1C(=O)COc2ccc(NS(=O)(=O)c3ccc(F)cc3C)cc21 | 99.8 | –
58 | > 100 | – | CCCN1C(=O)COc2ccc(S(=O)(=O)Nc3cccc(N4CCOCC4)c3)cc21 | 108 | –
59 | > 100 | 1.04 | CCCN1C(=O)COc2ccc(Nc3cccc(C)c3C)cc21 | 104 | 108
60 | > 100 | – | CCCN1C(=O)COc2ccc(NS(=O)(=O)c3cccc(OC)c3)cc21 | 99.8 | –
61 | > 100 | – | Cc1cccc(NS(=O)(=O)c2ccc3c(c2)OCC(=O)N3CCc2ccccc2)c1C | 103 | –
